From PubChem BioAssay (NCI)
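Five compound concentrations were applied to cells in 96-well plates for 48 hours; endpoints were derived by simple linear interpolation of the resulting dose-response curve. TGI denotes the concentration required for complete inhibition of growth.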

Tests used:
Test in all cases: DTP human tumour cell line panel, 48 h
786-0 renal = system: 786-0 renal
A498 renal = system: A498 renal
ACHN renal = system: ACHN renal
CAKI-1 renal = system: CAKI-1 renal
CCRF-CEM leukemia = system: CCRF-CEM leukemia
DU-145 prostate = system: DU-145 prostate
EKVX NSCLC = system: EKVX NSCLC
HCC-2998 colon = system: HCC-2998 colon
HCT-116 colon = system: HCT-116 colon
HCT-15 colon = system: HCT-15 colon
HL-60(TB) leukemia = system: HL-60(TB) leukemia
HOP-62 NSCLC = system: HOP-62 NSCLC
HOP-92 NSCLC = system: HOP-92 NSCLC
HS 578T breast = system: HS 578T breast
HT29 colon = system: HT29 colon
IGROV1 ovarian = system: IGROV1 ovarian
K-562 leukemia = system: K-562 leukemia
KM12 colon = system: KM12 colon
LOX IMVI melanoma = system: LOX IMVI melanoma
M14 melanoma = system: M14 melanoma
MCF7 breast = system: MCF7 breast
MDA-MB-231 breast = system: MDA-MB-231 breast
MDA-MB-435 = system: MDA-MB-435
MDA-N = system: MDA-N
MOLT-4 leukemia = system: MOLT-4 leukemia
NCI-H226 lung = system: NCI-H226 lung
NCI-H23 lung = system: NCI-H23 lung
NCI-H460 lung = system: NCI-H460 lung
NCI-H522 lung = system: NCI-H522 lung
NCI/ADR-RES ovarian = system: NCI/ADR-RES ovarian
OVCAR-3 ovarian = system: OVCAR-3 ovarian
OVCAR-4 ovarian = system: OVCAR-4 ovarian
OVCAR-5 ovarian = system: OVCAR-5 ovarian
OVCAR-8 ovarian = system: OVCAR-8 ovarian
PC-3 prostate = system: PC-3 prostate
RPMI-8226 leukemia = system: RPMI-8226 leukemia
RXF 393 renal = system: RXF 393 renal
SF-268 CNS = system: SF-268 CNS
SF-295 CNS = system: SF-295 CNS
SF-539 CNS = system: SF-539 CNS
SK-MEL-2 melanoma = system: SK-MEL-2 melanoma
SK-MEL-28 melanoma = system: SK-MEL-28 melanoma
SK-MEL-5 melanoma = system: SK-MEL-5 melanoma
SK-OV-3 ovarian = system: SK-OV-3 ovarian
SR leukemia = system: SR leukemia
SW-620 colon = system: SW-620 colon
T-47D breast = system: T-47D breast
TK-10 renal = system: TK-10 renal
U251 CNS = system: U251 CNS
UACC-257 melanoma = system: UACC-257 melanoma
UO-31 renal = system: UO-31 renal
A549 NSCLC = system: A549 NSCLC
BT-549 breast = system: BT-549 breast
COLO 205 colon = system: COLO 205 colon
MALME-3M melanoma = system: MALME-3M melanoma
SNB-19 CNS = system: SNB-19 CNS
SNB-75 CNS = system: SNB-75 CNS
UACC-62 melanoma = system: UACC-62 melanoma

SMILES: CC(C)=CCC/C(C)=C/C=C/C(C)=C/C=C/C(C)=C/C=C/C=C(C)/C=C/C=C(C)/C=C/[C@H]1C(C(C)(C)O)CC[C@]1(C)O (stereo not given in full)
- TGI (786-0 renal): 46.8 µM
- TGI (A498 renal): 84.8 µM
- TGI (ACHN renal): 45.5 µM
- TGI (CAKI-1 renal): > 100 µM
- TGI (CCRF-CEM leukemia): 34 µM
- TGI (DU-145 prostate): 49.9 µM
- TGI (EKVX NSCLC): > 100 µM
- TGI (HCC-2998 colon): 30 µM
- TGI (HCT-116 colon): 31.2 µM
- TGI (HCT-15 colon): 51.8 µM
- TGI (HL-60(TB) leukemia): 48.9 µM
- TGI (HOP-62 NSCLC): 40.8 µM
- TGI (HOP-92 NSCLC): 28.3 µM
- TGI (HS 578T breast): 59.1 µM
- TGI (HT29 colon): 86.2 µM
- TGI (IGROV1 ovarian): 49.5 µM
- TGI (K-562 leukemia): 63.6 µM
- TGI (KM12 colon): 70.6 µM
- TGI (LOX IMVI melanoma): 68.3 µM
- TGI (M14 melanoma): 91.1 µM
- TGI (MCF7 breast): 35.5 µM
- TGI (MDA-MB-231 breast): 66.9 µM
- TGI (MDA-MB-435): 61.2 µM
- TGI (MDA-N): 81.6 µM
- TGI (MOLT-4 leukemia): 54.9 µM
- TGI (NCI-H226 lung): > 100 µM
- TGI (NCI-H23 lung): 72.7 µM
- TGI (NCI-H460 lung): > 100 µM
- TGI (NCI-H522 lung): 36.8 µM
- TGI (NCI/ADR-RES ovarian): > 100 µM
- TGI (OVCAR-3 ovarian): 37.8 µM
- TGI (OVCAR-4 ovarian): > 100 µM
- TGI (OVCAR-5 ovarian): > 100 µM
- TGI (OVCAR-8 ovarian): 52.2 µM
- TGI (PC-3 prostate): > 100 µM
- TGI (RPMI-8226 leukemia): 54.5 µM
- TGI (RXF 393 renal): 45.4 µM
- TGI (SF-268 CNS): 42.4 µM
- TGI (SF-295 CNS): > 100 µM
- TGI (SF-539 CNS): > 100 µM
- TGI (SK-MEL-2 melanoma): > 100 µM
- TGI (SK-MEL-28 melanoma): 41.9 µM
- TGI (SK-MEL-5 melanoma): 33.5 µM
- TGI (SK-OV-3 ovarian): > 100 µM
- TGI (SR leukemia): 54.4 µM
- TGI (SW-620 colon): 65.8 µM
- TGI (T-47D breast): > 100 µM
- TGI (TK-10 renal): > 100 µM
- TGI (U251 CNS): 47.4 µM
- TGI (UACC-257 melanoma): 59.2 µM
- TGI (UO-31 renal): 47 µM

SMILES: COc1ccccc1/C=C1\SC(=S)N(/C=C2\C(=O)Oc3ccccc3C2=O)C1=O
- TGI (786-0 renal): > 100 µM
- TGI (A549 NSCLC): > 100 µM
- TGI (ACHN renal): > 100 µM
- TGI (BT-549 breast): 80.9 µM
- TGI (CAKI-1 renal): 3.23 µM
- TGI (CCRF-CEM leukemia): > 100 µM
- TGI (COLO 205 colon): 50.4 µM
- TGI (DU-145 prostate): > 100 µM
- TGI (EKVX NSCLC): 60.2 µM
- TGI (HCT-116 colon): > 100 µM
- TGI (HCT-15 colon): > 100 µM
- TGI (HOP-92 NSCLC): 64.8 µM
- TGI (HS 578T breast): > 100 µM
- TGI (HT29 colon): > 100 µM
- TGI (IGROV1 ovarian): > 100 µM
- TGI (K-562 leukemia): > 100 µM
- TGI (KM12 colon): > 100 µM
- TGI (LOX IMVI melanoma): > 100 µM
- TGI (M14 melanoma): > 100 µM
- TGI (MALME-3M melanoma): 64 µM
- TGI (MCF7 breast): > 100 µM
- TGI (MDA-MB-231 breast): 47.7 µM
- TGI (MDA-MB-435): 86.5 µM
- TGI (MDA-N): > 100 µM
- TGI (MOLT-4 leukemia): > 100 µM
- TGI (NCI-H226 lung): > 100 µM
- TGI (NCI-H23 lung): 10.1 µM
- TGI (NCI-H522 lung): 95.7 µM
- TGI (NCI/ADR-RES ovarian): > 100 µM
- TGI (OVCAR-3 ovarian): 44.6 µM
- TGI (OVCAR-4 ovarian): > 100 µM
- TGI (OVCAR-5 ovarian): > 100 µM
- TGI (OVCAR-8 ovarian): > 100 µM
- TGI (PC-3 prostate): > 100 µM
- TGI (SF-268 CNS): > 100 µM
- TGI (SF-539 CNS): 85.3 µM
- TGI (SK-MEL-2 melanoma): 59.4 µM
- TGI (SK-MEL-5 melanoma): 51.4 µM
- TGI (SK-OV-3 ovarian): 76 µM
- TGI (SNB-19 CNS): > 100 µM
- TGI (SNB-75 CNS): 55.6 µM
- TGI (SW-620 colon): > 100 µM
- TGI (TK-10 renal): 95.9 µM
- TGI (U251 CNS): > 100 µM
- TGI (UACC-257 melanoma): 62.2 µM
- TGI (UACC-62 melanoma): 64 µM
- TGI (UO-31 renal): 83.2 µM

SMILES: CC(C)[Si](OC1=C(C(=O)N(C)c2cccc(Cl)c2)CCCC1)(C(C)C)C(C)C
- TGI (786-0 renal): 34.2 µM
- TGI (A498 renal): 31.5 µM
- TGI (A549 NSCLC): 19.9 µM
- TGI (ACHN renal): 31.2 µM
- TGI (CAKI-1 renal): 25.9 µM
- TGI (CCRF-CEM leukemia): 49 µM
- TGI (COLO 205 colon): 35 µM
- TGI (DU-145 prostate): 25.5 µM
- TGI (EKVX NSCLC): 30.1 µM
- TGI (HCC-2998 colon): 34 µM
- TGI (HCT-15 colon): 28.4 µM
- TGI (HL-60(TB) leukemia): 26.3 µM
- TGI (HOP-62 NSCLC): 32.4 µM
- TGI (HOP-92 NSCLC): 25.4 µM
- TGI (HS 578T breast): 30.3 µM
- TGI (HT29 colon): 31.1 µM
- TGI (IGROV1 ovarian): 32.3 µM
- TGI (K-562 leukemia): 71.3 µM
- TGI (KM12 colon): 26.5 µM
- TGI (LOX IMVI melanoma): 32.6 µM
- TGI (M14 melanoma): 29.3 µM
- TGI (MALME-3M melanoma): 24.9 µM
- TGI (MCF7 breast): 29.2 µM
- TGI (MDA-MB-231 breast): 34.6 µM
- TGI (MDA-MB-435): 29 µM
- TGI (MDA-N): 34.4 µM
- TGI (MOLT-4 leukemia): > 100 µM
- TGI (NCI-H226 lung): 37.7 µM
- TGI (NCI-H23 lung): 25.3 µM
- TGI (NCI-H460 lung): 32.8 µM
- TGI (NCI/ADR-RES ovarian): 26.3 µM
- TGI (OVCAR-3 ovarian): 27.6 µM
- TGI (OVCAR-4 ovarian): 26 µM
- TGI (OVCAR-5 ovarian): 22.5 µM
- TGI (OVCAR-8 ovarian): 31 µM
- TGI (PC-3 prostate): 24 µM
- TGI (RPMI-8226 leukemia): 42.4 µM
- TGI (RXF 393 renal): 18.9 µM
- TGI (SF-268 CNS): 28.6 µM
- TGI (SF-295 CNS): 23.3 µM
- TGI (SF-539 CNS): 40.4 µM
- TGI (SK-MEL-2 melanoma): 33.2 µM
- TGI (SK-MEL-28 melanoma): 28.6 µM
- TGI (SK-MEL-5 melanoma): 34.2 µM
- TGI (SK-OV-3 ovarian): 30.6 µM
- TGI (SNB-19 CNS): 31 µM
- TGI (SNB-75 CNS): 22.8 µM
- TGI (SR leukemia): 42.5 µM
- TGI (SW-620 colon): 29.2 µM
- TGI (T-47D breast): 18.1 µM
- TGI (TK-10 renal): 30.4 µM
- TGI (U251 CNS): 32.9 µM
- TGI (UACC-257 melanoma): 27.8 µM
- TGI (UACC-62 melanoma): 30.8 µM
- TGI (UO-31 renal): 27.9 µM

SMILES: O=C(NCCCNCCCNC(=O)c1cc(-c2ccccc2)nc2ccccc12)c1cc(-c2ccccc2)nc2ccccc12
- TGI (A549 NSCLC): 3.34 µM
- TGI (ACHN renal): 3.2 µM
- TGI (BT-549 breast): > 23.7 µM
- TGI (CAKI-1 renal): 3.7 µM
- TGI (DU-145 prostate): 3.08 µM
- TGI (EKVX NSCLC): 3.32 µM
- TGI (HCT-15 colon): > 100 µM
- TGI (HL-60(TB) leukemia): 3.16 µM
- TGI (HOP-62 NSCLC): 2.16 µM
- TGI (HOP-92 NSCLC): 4.17 µM
- TGI (IGROV1 ovarian): 3.19 µM
- TGI (K-562 leukemia): 3.53 µM
- TGI (M14 melanoma): 3.19 µM
- TGI (MALME-3M melanoma): 3.5 µM
- TGI (MDA-MB-231 breast): 3.14 µM
- TGI (MDA-N): 3.13 µM
- TGI (NCI/ADR-RES ovarian): 4.13 µM
- TGI (OVCAR-3 ovarian): 3.23 µM
- TGI (OVCAR-4 ovarian): 3.32 µM
- TGI (OVCAR-5 ovarian): 3.53 µM
- TGI (OVCAR-8 ovarian): > 100 µM
- TGI (PC-3 prostate): 2.99 µM
- TGI (RPMI-8226 leukemia): 4.78 µM
- TGI (SF-539 CNS): > 100 µM
- TGI (SK-MEL-2 melanoma): 3.55 µM
- TGI (SK-MEL-28 melanoma): 3.09 µM
- TGI (SK-MEL-5 melanoma): 3.45 µM
- TGI (SK-OV-3 ovarian): 4.95 µM
- TGI (SNB-75 CNS): 2.96 µM
- TGI (TK-10 renal): 3.22 µM
- TGI (UACC-257 melanoma): 3.73 µM
- TGI (UO-31 renal): 3.38 µM
